Experimental data from publication PMC4644980, “The FDA-approved natural product dihydroergocristine reduces the production of the Alzheimer’s disease amyloid-β peptides” (Scientific Reports, 2015).
Values joined by “and” are separate entries in the source; they are usually repeats but may differ in a detail not shown here. Identical values can stand only once. Counter-ions that a name gives are not always drawn.

Columns and labels:
Nicastrin (NCT) = target: T1, Nicastrin (NCT) (Homo sapiens, UniProt Q92542); assay: surface plasmon resonance, Nicastrin immobilized; format: binding; conditions: SPR, Biacore T100, CM5 chip; read-out: equilibrium dissociation constant (Kd), Nicastrin (NCT)
T1 construct: Full length human NCT was purified as described previously; 6×His (C); FLAG (C); made in house; host or cells: High Five insect cells (baculovirus made in Sf9)
Procedure: A Biacore sensor Chip NTA that is designed to bind His-tagged proteins was used to immobilize γ-secretase. The SPR assay was performed in a running buffer (10 mM HEPES, 150 mM NaCl in the presence of 1% DMSO, pH 7.4). The purified His-tagged γ-secretase overexpressing human PS1, Flag-Pen-2, Aph-1a2-HA, and NCT-V5/His (see above) was diluted 6 times in DMSO-free running buffer. For each binding curve, the running buffer containing 500 μM NiCl2 was first injected to saturate the NTA chip. Then, His-tagged γ-secretase was injected and immobilized on the Ni^2+ -coated sensor chip. Compounds at the indicated concentrations were injected onto the surface of the sensor chip, and the corresponding binding spectrum was recorded. The sensor chip was regenerated with regeneration buffer (10 mM HEPES, 150 mM NaCl, 350 mM EDTA, pH 8.3). Purified human NCT (100 μg) was immobilized onto the flow cell of a CM5 sensor chip in 10 mM sodium acetate (pH 4.0) by using an amine coupling kit. The SPR assay was performed in HBS-P running buffer (10 mM HEPES, 150 mM NaCl and 0.005% surfactant P20 in the presence of 1% DMSO, pH 7.4). […] The Kd values were determined with Biacore evaluation 3.1 software. […]
Recombinant bacmids were used to transfect Sf9 cells to make the baculovirus, which was then used to infect High Five suspension insect cells (Invitrogen). […]

γ-secretase = γ-secretase (Homo sapiens, UniProt P49768+Q92542); assay: surface plasmon resonance, γ-secretase immobilized; format: binding; set-up: made in house; conditions: SPR, Biacore T100, NTA chip; read-out: equilibrium dissociation constant (Kd), γ-secretase
Procedure: A Biacore sensor Chip NTA that is designed to bind His-tagged proteins was used to immobilize γ-secretase. The SPR assay was performed in a running buffer (10 mM HEPES, 150 mM NaCl in the presence of 1% DMSO, pH 7.4). The purified His-tagged γ-secretase overexpressing human PS1, Flag-Pen-2, Aph-1a2-HA, and NCT-V5/His (see above) was diluted 6 times in DMSO-free running buffer. For each binding curve, the running buffer containing 500 μM NiCl2 was first injected to saturate the NTA chip. Then, His-tagged γ-secretase was injected and immobilized on the Ni^2+ -coated sensor chip. Compounds at the indicated concentrations were injected onto the surface of the sensor chip, and the corresponding binding spectrum was recorded. The sensor chip was regenerated with regeneration buffer (10 mM HEPES, 150 mM NaCl, 350 mM EDTA, pH 8.3). Purified human NCT (100 μg) was immobilized onto the flow cell of a CM5 sensor chip in 10 mM sodium acetate (pH 4.0) by using an amine coupling kit. The SPR assay was performed in HBS-P running buffer (10 mM HEPES, 150 mM NaCl and 0.005% surfactant P20 in the presence of 1% DMSO, pH 7.4). […] The Kd values were determined with Biacore evaluation 3.1 software.

purified γ-secretase = target: T2, purified γ-secretase (Homo sapiens, UniProt P49768+Q92542); assay: cell-free in vitro C100-Flag γ-secretase assay with purified enzyme; format: biochemical
T2 construct: made in house
Text: The density of the AICD-Flag and Aβ total bands was quantified by Odyssey software (Supplementary data Fig. S5). […] The residue was then separated by Bicine/urea SDS-PAGE, together with an Aβ standard of synthetic human Aβ38, Aβ40 and Aβ42, followed by Western blot detection with anti-Aβ antibody (6E10, left panel), or quantification by ELISA (right panel). Black bars, Aβ [1–40]; gray bars, Aβ[1–42]. Data were presented as the means ± sd. […] The change in response units over time is shown. […]
γ-Secretase was purified from S-20 cells as described previously. The recombinant APP-based protein substrate of γ-secretase, namely human C100-Flag, was overexpressed in E. coli and purified by using an anti-Flag M2 resin[31]. Full length human NCT was purified as described previously (for details, see Supplementary information)[32].
Cell-free in vitro γ-secretase assays using the recombinant C100-Flag substrate and purified γ-secretase were performed as described in the Supplementary information.
Aβ1-x peptides secreted in the cell media were quantitatively measured by ELISA (IBL, Gunma, Japan) according to the standard protocol from the manufacturer. Aβ40 and Aβ42 generated in the C100-Flag γ-secretase assays stopped with 0.5% SDS (final concentration) were quantified with the human Beta Amyloid or [1–42] colorimetric ELISA kit, respectively. […]
γ-Secretase activity assays
γ-Secretase purified from S-20 cells was solubilized in 0.2% (w/v) CHAPSO in 50 mM HEPES buffer (pH 7.0) containing of 150 mM NaCl, 5 mM MgCl2 and 5 mM CaCl2, and incubated with 0.1% (w/v) PC and 1 μM or otherwise indicated […]
concentrations of substrate at 37 °C for 4 h, after which the enzymatic reactions were stopped by adding 0.5% SDS (final concentration). The samples were analyzed by Western Blot for AICD-Flag or Aβ. […]

T1 sequence (Q92542 34-709): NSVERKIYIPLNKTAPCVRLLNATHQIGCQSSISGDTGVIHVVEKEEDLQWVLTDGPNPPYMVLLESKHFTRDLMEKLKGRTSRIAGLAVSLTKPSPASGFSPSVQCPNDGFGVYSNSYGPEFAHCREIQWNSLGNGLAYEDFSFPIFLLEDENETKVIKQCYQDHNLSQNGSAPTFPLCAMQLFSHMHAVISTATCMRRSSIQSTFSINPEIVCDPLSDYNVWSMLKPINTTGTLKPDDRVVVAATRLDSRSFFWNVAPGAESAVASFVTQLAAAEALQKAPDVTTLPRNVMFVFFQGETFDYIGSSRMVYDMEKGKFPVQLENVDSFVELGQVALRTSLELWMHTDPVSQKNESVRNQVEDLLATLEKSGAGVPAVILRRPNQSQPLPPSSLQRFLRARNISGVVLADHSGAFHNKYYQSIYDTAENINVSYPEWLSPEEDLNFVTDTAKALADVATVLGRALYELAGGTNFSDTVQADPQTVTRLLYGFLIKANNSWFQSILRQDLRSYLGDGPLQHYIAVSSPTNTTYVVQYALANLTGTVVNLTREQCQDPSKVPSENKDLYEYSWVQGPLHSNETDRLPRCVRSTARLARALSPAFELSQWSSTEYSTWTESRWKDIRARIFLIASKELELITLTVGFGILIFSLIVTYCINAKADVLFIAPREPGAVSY

SMILES: CC(C)[C@@]1(NC(=O)[C@@H]2C[C@@H]3c4cccc5[nH]cc(c45)C[C@H]3N(C)C2)O[C@@]2(O)[C@@H]3CCCN3C(=O)[C@H](Cc3ccccc3)N2C1=O [DHEC, Dihydroergocristine methanesulfonate salt]
- Kd (Nicastrin (NCT)): 9.85 µM and ~10 µM and 9.8 µM and 10 µM
- Kd (γ-secretase): 0.0257 µM
- γ-secretase-dependent processing of C100-Flag into AICD-Flag or Aβ (purified γ-secretase; 1 μM C100-Flag, 37 °C, 4 h): inhibited
- inhibitory effect on γ-secretase at high substrate concentration (purified γ-secretase; 4 μM APP-C100 compared to 1 μM): greatly reduced inhibitory effect
- The potency of compound (in vitro C100 γ-secretase assay) (purified γ-secretase; 200 µM, compared with DHEC, estimated by densitometry): ++
- IC50 (purified γ-secretase; IC50, Aβ40 and Aβ42 production (cell-free assay), 1 μM C100-Flag, 37 °C, 4 h, ELISA): ~100 µM and 100 µM
